# Tested on: Plasmodium falciparum
# Assay: GSK_TCMDC: Inhibition of Plasmodium falciparum 3D7 in whole erythrocytes, using parasite LDH activity as an index of growth.
# Type: functional, organism-based
# Conditions: Plasmodium falciparum, 3D7
row,SMILES,XC50 [nM]
1,CN(C)CCOc1ccc(N2CCN(CCCCNC(=O)c3ccc(/C=C/c4cc(Cl)cc(Cl)c4)cc3)CC2)cc1,1000
2,Cc1nc2nc(N)nc(N)c2c(C)c1Cc1ccccc1Cl,112
3,CC(=O)N1N=C(c2ccccc2)Sc2c1nc(-c1ccc(Cl)cc1)n2C(C)=O,986
4,CNCCNCc1ccc(-c2ccc(-c3nc4cc(C(F)(F)F)ccc4[nH]3)cc2)cc1,314
5,Cn1cccc1CCNCc1ccc(-c2cccc(-c3nc4ccccc4[nH]3)c2)cc1,1210
6,CCNc1cc(C(=O)N[C@@H](Cc2ccccc2)[C@H](O)CNCc2cccc(OC)c2C)cc(N2CCCCS2(=O)=O)c1,518
7,O=C(NCCCN1CCC(Cc2ccccc2)CC1)c1cc2c(Cl)nc3ccccc3c2s1,744
8,NC1=NC(Cc2ccccc2)(c2ccncc2)C(=O)N1CCCc1ccccc1 (stereo unspecified),936
9,N#Cc1cccc(CN2CCCN(Cc3ccc(C(=O)Nc4ccc(Cl)cc4)cc3)CC2)c1,882
10,CC(C)N(Cc1ccccc1)C(=O)CN1C(=O)COc2ccc(S(=O)(=O)N3CCCCCC3)cc21,253
11,CN1CCC(C(=O)Nc2ccc(-c3cccc(-c4nc5cc(F)ccc5[nH]4)c3)cc2)CC1,792
12,Cc1nc(N)nc(N)c1-c1ccc2ccccc2c1,868
13,Cc1cccc(C(=O)NC(NC(=S)Nc2cc(Cl)ccc2Cl)C(Cl)(Cl)Cl)c1 (stereo unspecified),1270
14,Cc1cc(=O)c(-c2ccc(OCc3ccc(OC(F)(F)F)cc3)cc2)c(C)[nH]1,736
15,O=C(NC1CCN(Cc2ccccc2)CC1)c1ccc(-c2nc3cc(Cl)c(F)cc3[nH]2)cc1,245
16,COc1ccc(C2CC(c3ccccc3)=NN2C(=O)c2ccc(Br)o2)cc1 (stereo unspecified),323
17,COc1ccc(-c2cnc(N)c(-c3ccc(O)c(OC)c3)c2)cn1,875
18,Cc1cc(N)nc2ccc(CNCCc3ccccc3Br)cc12,120
19,COc1cc(C2Nc3ccc4ccccc4c3C3=C2C(=O)CC(C)(C)C3)ccc1Oc1ccc([N+](=O)[O-])cc1C#N (stereo unspecified),662
20,CCC(C)NS(=O)(=O)c1ccc2nc(Nc3ccc(C)cc3)n(C3CCCCC3C)c2c1 (stereo unspecified),592
21,c1cc(CN2CCN(CCN3CCOCC3)CC2)cc(-c2ccc(-c3nc4ccccc4[nH]3)cc2)c1,131
22,CCN1CCC(N(Cc2ccc(-c3ccc(C(F)(F)F)cc3)o2)C(=O)Cn2c(CCc3cccc(F)c3F)nc(=O)c3ccccc32)CC1,1140
23,O=C(NC1CCN(CCC[C@]2(c3ccc(Cl)c(Cl)c3)CCCN(C(=O)c3ccccc3)C2)CC1)c1ccc(Cl)cc1,899
24,Cc1ccc(-c2nnc(Nc3ccc(OCC(N)=O)cc3)c3ccccc23)cc1S(=O)(=O)NCC1CCCO1 (stereo unspecified),753

row,SMILES,XC50 [nM]
1,O=c1c(Br)c(C(F)(F)F)[nH]c2ccc(Oc3ccccc3)cc12,1100
2,CCCc1nc2c(N3CC(NC(=O)/C=C/c4ccccc4)C3)cccc2n1C1CC1,554
3,COc1ccc(C2CC(=O)C3=C(C2)NC(C)=C(C(=O)OC2CCCC2)C3c2cccc(O)c2)cc1OC (stereo unspecified),216
4,CN1CCN(CCCN(Cc2cccc(-c3cccc(CNC4CCCC4)c3)c2)C(=O)/C=C/c2ccccc2)CC1,777
5,Cc1cccc2nc(-c3ccc(-c4ccc(CN5CCC(CO)CC5)cc4)s3)[nH]c12,812
6,CN(C)CCCNc1ncnc2c1[nH]c1ccc(Cl)cc12,279
7,COc1ccc(-c2cccc(NC(=O)c3cccc(Cl)c3)c2)cc1CN1CCCN(C)CC1,231
8,COc1c(C2=CCN(CCCCNC(=O)c3ccc(-c4ccc(C#N)cc4)cc3)CC2)ccc2c1CCCC2,911
9,O=C(NC1CCN(Cc2ccccc2)CC1)c1cc(-c2ccncc2)c(-c2ccc(Cl)c(O)c2)o1,407
10,CCN(CC)CCN(Cc1ccc(-c2ccc(C(F)(F)F)cc2)cc1)C(=O)c1ccc(-c2ccc(C#N)cc2)cc1,1110
11,Cc1ccc(Nc2nc(C)cc(N3CCN(c4ccccc4)CC3)n2)cc1,1530
12,COC(=O)Nc1cc(C(F)(F)F)ccc1N1CCC(CNS(=O)(=O)c2ccc(OC)cc2)CC1,249
13,O=S(=O)(Nc1ccc2nccc(N3CCNCC3)c2c1)c1ccc2c(Cl)cccc2c1,573
14,CC(=O)NC(c1cccs1)c1cc(Cl)c2cccnc2c1O (stereo unspecified),317
15,Cc1cnc2ccc(NS(=O)(=O)c3sc4ccc(Cl)cc4c3C)cc2c1N1CCNCC1,807
16,CCN1CCC(N(Cc2ccc(-c3ccc(C(F)(F)F)cc3)cc2)C(=O)Cn2c(CCc3cccc(F)c3F)cc(=O)c3c2CCCC3)CC1,755
17,O=C(Nc1cccc(-c2csc(-c3ccccc3)n2)c1)c1cccs1,800
18,O=C(N/C=N/c1cc([N+](=O)[O-])c(-c2cccnc2)n1-c1ccc(O)cc1)c1ccccc1,299
19,CCNc1cc(C(=O)N[C@@H](Cc2ccccc2)[C@H](O)CNC2CCC(C)(C)CC2)cc(N2CCCCS2(=O)=O)c1,647
20,O=S(=O)(Nc1cc2c(cc1O)CCN(C1CCC1)CC2)c1ccc(Oc2ccc(F)cc2)cc1,775
21,COc1cccc(C(=O)NC(C=Cc2ccccc2)c2cc(Cl)c3cccnc3c2O)c1 (stereo unspecified),859
22,FC(F)(F)c1ccc2[nH]c(-c3ccc(-c4ccc(CNCc5ccccc5)cc4)cc3)nc2c1,143
23,Fc1ccc2[nH]c(-c3ccc(-c4cccc(CN5CCC(CCN6CCCCC6)CC5)c4)cc3)nc2c1,136
24,COCc1ccccc1C(=O)NCCOc1cc(C)cc(C)c1,353

row,SMILES,XC50 [nM]
1,O=C(Cc1ccccc1)NC1CCN(c2ccnc3cc(Cl)ccc23)C1 (stereo unspecified),805
2,COc1ccc(C(=O)C2CC2CN2CC=C(c3c[nH]c4ccccc34)CC2)cc1 (stereo unspecified),532
3,N#Cc1ccc(-c2ccc(C(=O)NCCCCN3CCC(c4cc(Br)c5c(c4OCC(N)=O)CCCC5)CC3)cc2)cc1,797
4,COc1ccc(NC(=O)C2c3ccccc3C(=O)N(C3CCCC3)C2c2cccs2)c(OC)c1 (stereo unspecified),1480
5,COc1ccc(CNCc2ccc(-c3ccc(-c4nc5cc(C(F)(F)F)ccc5[nH]4)cc3)cc2)cc1,135
6,CCCN1CCC=C(c2cccc(Nc3nccc(Nc4cc(OC)ccc4C)n3)c2)C1,1040
7,CCCCOc1c(CCNCCCCNCCc2cc(OC)c3ccccc3c2OCCCC)cc(OC)c2ccccc12,925
8,CCCC(=O)NC(c1ccc(C)cc1)c1ccc2cccnc2c1O (stereo unspecified),957
9,Nc1ccc(-c2ccc(NC(=O)Nc3cc(C(F)(F)F)ccc3F)cc2)cn1,657
10,O=c1[nH]ccc2nc(N[C@@H]3CCCNC3)nc(Nc3ccc(S(=O)(=O)N4CCOCC4)cc3)c12,742
11,COc1cc2nc(NCCCN3CCCCC3)nc(NCc3ccccc3)c2cc1OC,998
12,COC(=O)c1ccc(OCC(O)CO)cc1O (stereo unspecified),738
13,Cc1ccc(NC(=O)c2cccc(C#N)c2)cc1-c1ccc(C(=O)Nc2ccncc2)cc1,688
14,CCCn1cc2c(ccc3nc(N)nc(N)c32)n1,81.4
15,O=C(Nc1ccc(Cl)cc1)N(CC1CC2CCC(C1)N2Cc1ccc(C(F)(F)F)cc1)c1ccc(N2CCOCC2)c(F)c1 (stereo unspecified),1070
16,O=C(NOCCCCOc1ccc(Cl)c(Cl)c1)c1ccccc1,183
17,Cc1ccc(C)c(NC(=O)NC2CCN(c3ccnc(Nc4ccc(F)cc4)n3)C2)c1 (stereo unspecified),675
18,O=C(Nc1ccc(Cl)c(C(F)(F)F)c1)c1ccc(C(=O)Nc2ccc(Cl)c(C(F)(F)F)c2)cc1,1000
19,COCCNCc1ncsc1-c1ccc2c(Nc3cc(O)c(Cl)cc3F)ccnc2c1,547
20,COc1ccccc1NC(=O)Nc1cccc(-c2ccc(-c3nc4cc(C(F)(F)F)ccc4[nH]3)cc2)c1,306
21,COc1cccc(NC(=O)c2cc(Br)cc(N3CCN(c4ccncc4)CC3)c2)c1,772
22,CCC(CCON1C(N)=NC(N)=NC1(C)C)c1ccc(Cl)c(Cl)c1 (stereo unspecified),3.2
23,Cc1cc(NCCC(=O)NCCOc2ccccc2)nc(NCCc2ccc(F)cc2)n1,940
24,O=c1cc(NCCCNCc2cccc3c2OC(F)(F)O3)[nH]c2ccccc12,947

row,SMILES,XC50 [nM]
1,FC(F)(F)c1cccc(Nc2nc(-n3ccnc3)nc(-n3ccnc3)n2)c1,724
2,CCCc1cc(N2CCC(N(CC)CC)C2)nc(Nc2ccc(OC)cc2)n1 (stereo unspecified),168
3,CCn1cc(CN2C(=O)C(c3ccccc3)(c3ccccc3)N=C2N)cn1,820
4,COc1ccc2nccc([C@@H](O)CN3CCC(NC(=O)/C(=C/c4ccccc4)c4ccc(-c5ccccc5)cc4)CC3)c2c1,1050
5,CO/C(=C\C=C\c1cc2cc(Cl)c(Cl)cc2[nH]1)C(=O)NC1CC(C)N(C)C(C)C1 (stereo unspecified),902
6,O=C(/C=C/c1ccc(Cl)c(Cl)c1)NCCCCCN1CCC(C(=O)Nc2ccc3c(c2)OCO3)CC1,839
7,COc1cc(NC2=C(c3ccccc3)C(=O)c3ccccc32)ccn1,359
8,Cc1ccccc1C1CCN(C2CCC(NC(=O)c3cc4cc(Cl)ccc4o3)CC2)CC1 (stereo unspecified),1200
9,O=C(CCc1cccc(O)c1)NCC(NCCCNc1cc(=O)c2ccccc2[nH]1)c1cc(Br)cc(Br)c1 (stereo unspecified),1170
10,O=C(/C=C/c1ccccc1Cl)NC1CCC(CN2CCC(c3c[nH]c4ccncc34)CC2)CC1 (stereo unspecified),334
11,COc1cc(C)nc2ccc(NC(=O)c3cc(C(F)(F)F)cc(C(F)(F)F)c3)cc12,912
12,O=C(Nc1ccc(Oc2ccccc2)cc1)N(Cc1ccc(-c2cccc(CN3CCNCC3)c2)cc1)C1CCN(Cc2ccccc2)CC1,881
13,CCC(C)CN1C(=O)C(c2ccccc2)(c2ccccc2)N=C1N (stereo unspecified),712
14,CCC(C)c1ccc(O)c(NC(=O)c2cncc(Br)c2)c1 (stereo unspecified),804
15,c1ccc2c(CNCCCN3CCN(CCCNCc4c5ccccc5cc5ccccc45)CC3)c3ccccc3cc2c1,182
16,Cc1c(Cn2ncc(N3CCC(N)CC3)c(Cl)c2=O)cccc1NC(=O)Nc1ccc(-c2ccccc2)cc1,697
17,CC(C)Sc1nc(-c2ccccc2)nc2c1COC(C)(C)C2,857
18,O=S(=O)(NCCN1CCCC1)c1ccc(-c2ccccc2CNC2Cc3ccccc3C2)cc1,847
19,COc1ccc(Nc2nc(N)c3cc(OC)c(OC)cc3n2)cc1OC,732
20,Cc1cc(C(=O)Nc2ccc3c(ccn3C3CCCN(Cc4ccc(C(F)(F)F)cc4F)CC3)c2)no1 (stereo unspecified),765
21,CC(C)(CNC(=O)C1CCN(Cc2ccoc2)CC1)c1nc(-c2ccc(Cl)c(O)c2)c(-c2ccncc2)[nH]1,866
22,CN(C)Cc1ccc2cc(NC(=O)c3ccc(-c4ccc(Cl)cc4)cc3)ccc2n1,849
23,COc1cc(Nc2nccc(N3CCC(NC(=O)Nc4cccc(C(C)=O)c4)C3)n2)cc(OC)c1OC (stereo unspecified),973
24,Cc1ccc(S(=O)(=O)N2CCN(C(=O)c3cc(-c4ccccc4)n[nH]3)CC2)cc1,603
